Data: ChEMBL document CHEMBL1201862, “PubChem BioAssay data set” (2004)
Where “and” joins values, the source holds several entries; their conditions need not be identical. Equal values may be shown once.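 Results reflect a 48-hour exposure of cells in 96-well plates to compound at five concentrations. GI50: concentration for 50% inhibition of growth.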 Calls of active or inactive are those of the source. No stated cut-off is given here; in the data, active = GI50 up to about 1.1 µM and inactive = higher.

Experiments:
Test in all cases: NCI anticancer screen, dose series, 48 h
OVCAR-4 = system: OVCAR-4
UACC-62 = system: UACC-62
EKVX = system: EKVX
HCC 2998 = system: HCC 2998
DLD-1 = system: DLD-1
RPMI-8226 = system: RPMI-8226
RXF 393 = system: RXF 393
SK-MEL-5 = system: SK-MEL-5
SW-620 = system: SW-620
NCI-H23 = system: NCI-H23
HOP-92 = system: HOP-92
TK-10 = system: TK-10
UO-31 = system: UO-31
CAKI-1 = system: CAKI-1
M19-MEL = system: M19-MEL
IGROV-1 = system: IGROV-1
K562 = system: K562
BT-549 = system: BT-549
MDA-MB-231 = system: MDA-MB-231

Row | Structure (SMILES) | GI50 (OVCAR-4) | GI50 (UACC-62) | GI50 (EKVX) | GI50 (HCC 2998) | GI50 (DLD-1) | GI50 (RPMI-8226) | GI50 (RXF 393) | GI50 (SK-MEL-5) | GI50 (SW-620) | GI50 (NCI-H23) | GI50 (HOP-92) | GI50 (TK-10) | GI50 (UO-31) | GI50 (CAKI-1) | GI50 (M19-MEL) | GI50 (IGROV-1) | GI50 (K562) | GI50 (BT-549) | GI50 (MDA-MB-231)
1 | CC1=NN(C(=O)CC(=O)Nc2cccc(Cl)c2)C(=O)C1/N=N/c1ccc(S(N)(=O)=O)cc1 (stereo not given) | > 100 µM (inactive) | > 100 µM (inactive) | > 100 µM (inactive) | > 100 µM (inactive) | > 100 µM (inactive) | > 100 µM (inactive) | > 100 µM (inactive) | > 100 µM (inactive) | > 100 µM (inactive) | > 100 µM (inactive) | > 100 µM (inactive) | > 100 µM (inactive) | > 100 µM (inactive) | > 100 µM (inactive) | > 100 µM (inactive) | > 100 µM (inactive) |  |  | 
2 | CCN(CC)CCCn1cnc2ncccc2c1=O | > 100 µM (inactive) | > 100 µM (inactive) | > 100 µM (inactive) | > 10 µM (inactive) | > 100 µM (inactive) |  | > 100 µM (inactive) | > 100 µM (inactive) | > 100 µM (inactive) | > 100 µM (inactive) | > 100 µM (inactive) | > 100 µM (inactive) | > 100 µM (inactive) | > 100 µM (inactive) | > 100 µM (inactive) | > 100 µM (inactive) | > 100 µM (inactive) |  | 
3 | CCOc1ccccc1/N=N/c1c(-c2ccccc2)nn(C(=O)CC(=O)Nc2cccc(C)c2)c1-c1ccccc1 | > 100 µM (inactive) | > 100 µM (inactive) | 56.6 µM (inactive) | 22.7 µM (inactive) | 62.8 µM (inactive) | > 100 µM (inactive) | > 100 µM (inactive) | > 100 µM (inactive) | > 100 µM (inactive) | > 100 µM (inactive) | > 100 µM (inactive) | > 100 µM (inactive) | 35.2 µM (inactive) | > 100 µM (inactive) | > 100 µM (inactive) | > 100 µM (inactive) | 62.7 µM (inactive) |  | 
4 | CC(=O)NC1C(OCc2ccccc2)OC(COC(=O)CCCCCNc2ccc([N+](=O)[O-])c3[nH]c4ccc(O)cc4c(=O)c23)C(O)C1OC(C)C(=O)N[C@@H](C)C(=O)N[C@H](CCC(=O)OCc1ccccc1)C(N)=O (stereo not given in full) | 3.34 µM (inactive) | 1.77 µM (inactive) | 3.94 µM (inactive) | 3.25 µM (inactive) | 1.8 µM (inactive) | 0.506 µM (active) | 1.6 µM (inactive) | 8.53 µM (inactive) | 0.465 µM (active) | 1.35 µM (inactive) | 0.879 µM (active) | 3.06 µM (inactive) |  | 1.56 µM (inactive) | 5.68 µM (inactive) | 7.24 µM (inactive) | 1.49 µM (inactive) |  | 
5 | COc1ccc(C(=O)CC(=O)C(=O)Nc2ccc(C)c(C)c2)cc1 | 85.5 µM (inactive) | > 95.5 µM (inactive) | > 100 µM (inactive) | 97.3 µM (inactive) | 61.8 µM (inactive) | > 47.5 µM (inactive) | > 54.5 µM (inactive) | 97.9 µM (inactive) | 28.4 µM (inactive) | > 100 µM (inactive) | > 51.3 µM (inactive) | > 100 µM (inactive) | 98.6 µM (inactive) | > 100 µM (inactive) | > 100 µM (inactive) | > 93.3 µM (inactive) | 53.6 µM (inactive) |  | 
6 | COc1ccc(-c2c(C3=NCCN3)nnn2-c2ccccc2)cc1 | > 100 µM (inactive) | > 100 µM (inactive) | > 100 µM (inactive) | > 100 µM (inactive) | > 100 µM (inactive) | > 100 µM (inactive) | > 100 µM (inactive) | > 100 µM (inactive) | > 100 µM (inactive) | > 100 µM (inactive) | > 100 µM (inactive) | > 100 µM (inactive) | > 100 µM (inactive) | > 100 µM (inactive) | > 100 µM (inactive) | > 100 µM (inactive) | > 100 µM (inactive) |  | 
7 | CC(C)(Oc1ccc(/C=C/C(=O)c2ccccc2)cc1)C(=O)Nc1c(Cl)cccc1Cl | > 10 µM (inactive) | > 10 µM (inactive) | > 10 µM (inactive) | > 10 µM (inactive) | > 10 µM (inactive) | > 10 µM (inactive) | > 10 µM (inactive) | > 10 µM (inactive) | 7.08 µM (inactive) | 7.33 µM (inactive) | > 10 µM (inactive) | > 10 µM (inactive) | > 10 µM (inactive) | > 10 µM (inactive) | > 10 µM (inactive) | > 10 µM (inactive) | 17 µM (inactive) |  | 
8 | NC1=NC(=O)/C(=C2\CCNC(=O)c3[nH]c(Br)cc32)N1 [HYMENIALDISINE] | 15.3 µM (inactive) and 17.5 µM (inactive) | 13.4 µM (inactive) and 9.62 µM (inactive) | > 100 µM (inactive) and > 71.3 µM (inactive) | 57.9 µM (inactive) and 55.3 µM (inactive) | 37.6 µM (inactive) |  | 29.7 µM (inactive) and 34.6 µM (inactive) |  |  | 80.9 µM (inactive) and 52.7 µM (inactive) | 29.2 µM (inactive) and 40.8 µM (inactive) | 9.12 µM (inactive) | 3.02 µM (inactive) and 5.6 µM (inactive) |  | 48.5 µM (inactive) |  | 3.85 µM (inactive) and 4.1 µM (inactive) | 10.4 µM (inactive) | 4.66 µM (inactive)
